Data set [1] in a line: Apparent permeability across apical to basolateral side in dog MDCK-MDR1 cells. The format is ADME, cell-based, Canis lupus familiaris.
Data set [2] has as its target Phosphatidylinositol 5-phosphate 4-kinase type-2 gamma (Homo sapiens, UniProt Q8TBX8).
Description: Inhibition of GST-fused human recombinant chimeric PI5P4Kgamma+ harboring PI5P4Kalpha-like mutations expressed in Escherichia coli BL21(DE3) incubated for 60 mins by ADP-Glo assay
Data set [3] has as its target T1, Phosphatidylinositol 5-phosphate 4-kinase type-2 beta (Homo sapiens, UniProt P78356).
T1 sequence (P78356 whole entry): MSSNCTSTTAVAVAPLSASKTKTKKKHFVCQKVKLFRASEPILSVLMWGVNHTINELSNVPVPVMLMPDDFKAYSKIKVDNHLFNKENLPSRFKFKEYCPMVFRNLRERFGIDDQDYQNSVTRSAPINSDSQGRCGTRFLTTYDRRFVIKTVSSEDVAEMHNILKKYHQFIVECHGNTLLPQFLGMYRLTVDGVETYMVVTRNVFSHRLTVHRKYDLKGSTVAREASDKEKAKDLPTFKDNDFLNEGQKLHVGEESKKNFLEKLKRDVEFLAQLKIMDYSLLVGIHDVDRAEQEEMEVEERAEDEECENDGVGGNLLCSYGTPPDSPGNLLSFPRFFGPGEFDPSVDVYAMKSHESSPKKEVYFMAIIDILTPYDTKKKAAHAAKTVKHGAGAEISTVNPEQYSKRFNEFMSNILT
Description: Inhibition of GST-fused human recombinant PI5P4Kbeta expressed in Escherichia coli BL21(DE3) incubated for 60 mins by ADP-Glo assay. For orientation: ADP-Glo first removes unused ATP, then detects ADP through luciferase.

Some results are limits rather than exact numbers.

Chain of Phosphatidylinositol 5-phosphate 4-kinase type-2 gamma (Q8TBX8 2-421 limits assumed, change not shown): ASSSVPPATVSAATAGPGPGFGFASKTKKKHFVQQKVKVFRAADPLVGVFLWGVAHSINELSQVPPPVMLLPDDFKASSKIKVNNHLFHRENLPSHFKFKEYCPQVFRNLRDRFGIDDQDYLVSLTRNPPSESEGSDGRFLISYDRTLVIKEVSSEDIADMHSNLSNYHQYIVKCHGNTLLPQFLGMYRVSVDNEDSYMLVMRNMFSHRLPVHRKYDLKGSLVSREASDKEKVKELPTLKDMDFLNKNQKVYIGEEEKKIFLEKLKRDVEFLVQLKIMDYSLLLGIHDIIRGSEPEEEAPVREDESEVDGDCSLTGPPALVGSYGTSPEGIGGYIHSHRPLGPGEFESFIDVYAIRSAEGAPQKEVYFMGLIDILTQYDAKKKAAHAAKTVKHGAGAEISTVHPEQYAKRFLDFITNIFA

As usually defined, the Papp A→B is the apparent permeability from the apical to the basolateral side of a cell layer. One may read the pIC50 as the negative decadic logarithm of the IC50, by convention in mol/L. The low end stands for a large IC50, the high end for a small IC50. Regarding `Cc1ncccc1-c1cc2ncnc(Nc3ccc(N4CCCC4=O)cc3)c2s1`, in data set [1], the Papp A→B is 3.15 ×10⁻⁶ cm/s. The compound also came in with a pIC50 in data set [2] of 8.1. On to `Cc1ncccc1-c1cc2ncnc(Nc3ccc4ncoc4c3)c2s1`, for which the pIC50 in data set [2] came out at 6.3. The compound `CSc1ccc(Nc2ncnc3sc(-c4cccnc4C)cc23)cc1` yielded a pIC50 in data set [2] of 7.3.

The compound `Cc1ncccc1-c1cc2c(Nc3ccc(C4CC4)cc3)ncnc2s1` had a pIC50 in data set [2] of 7. Same read-out and setting: next, `CCc1ccc(Nc2ncnc3sc(-c4cccnc4C)cc23)cc1`: 6.4. In general, IC50 refers to the concentration at which inhibition is half-maximal. For `Cn1cc(-c2cc3c(Nc4ccc(S(C)(=O)=O)cc4)ncnc3s2)cn1`, in data set [1], the Papp A→B worked out at 2.88 ×10⁻⁶ cm/s. Besides, the pIC50 in data set [2] came out at 7.4. Further, the IC50 in data set [3] was > 10 µM. For the compound `Cc1ccncc1-c1cc2c(Nc3ccc(S(C)(=O)=O)cc3)ncnc2s1`, the Papp A→B in data set [1] is 2.45 ×10⁻⁶ cm/s. For the same compound, the pIC50 in data set [2] is 7.9. In turn, `CSc1ccc(Nc2ncnc3sc(-c4cnoc4)cc23)cc1` showed a pIC50 in data set [2] of 7.4. For the compound `CSc1ccc(Nc2ncnc3sc(-c4ccncc4C)cc23)cc1`, in data set [1], the Papp A→B was determined as 3.7 ×10⁻⁶ cm/s. The compound further registered a pIC50 in data set [2] of 7.7. With `CS(=O)(=O)c1ccc(Nc2ncnc3scc(Cl)c23)cc1`, the Papp A→B in data set [1] turned out to be 14.2 ×10⁻⁶ cm/s. Take `Cc1cnccc1-c1cc2c(Nc3ccc(S(C)(=O)=O)cc3)ncnc2s1`: the Papp A→B in data set [1] worked out at 3.13 ×10⁻⁶ cm/s. Further, in data set [3], the IC50 is > 10 µM. As for `Cc1ncccc1-c1cc2c(Nc3ccc(S(C)(=O)=O)cc3)ncnc2s1`, the apical-to-basolateral permeability (Papp A→B) in data set [1] was determined as 1.33 ×10⁻⁶ cm/s. The compound also returned a negative logarithm of the IC50 (pIC50) in data set [2] of 7.7. Moreover, the IC50 in data set [3] was > 10 µM. On to `Cc1ncccc1-c1cc2ncnc(Nc3ccc(C4CC4)cc3)c2s1`, for which the Papp A→B in data set [1] is 9.95 ×10⁻⁶ cm/s. The same compound had a pIC50 in data set [2] of 7.3. On to `CS(=O)(=O)c1ccc(Nc2ncnc3sc(-c4cccnc4)cc23)cc1`, for which the pIC50 in data set [2] is listed as 7.5. Still for that read-out and setting: then `COc1cnccc1-c1cc2c(Nc3ccc(S(C)(=O)=O)cc3)ncnc2s1`, with 7.5; and `COc1ccc(Nc2ncnc3sc(-c4cccnc4C)cc23)cc1`, with 5.7; and `Cc1ccc(Nc2ncnc3sc(-c4cccnc4C)cc23)c(C)c1`, with 5.4. Regarding `CSc1ccc(Nc2ncnc3cc(-c4cccnc4Cl)sc23)cc1`, in data set [1], the Papp A→B was 12.9 ×10⁻⁶ cm/s. This compound came in with a pIC50 in data set [2] of 8.1. In turn, `Cc1ccc(Nc2ncnc3sc(-c4cccnc4C)cc23)cc1` had a pIC50 in data set [2] of 5.8.

As for `Cc1cccc(Nc2ncnc3sc(-c4cccnc4C)cc23)c1`, the negative-log IC50 (pIC50) in data set [2] worked out at 5.3. The same measure, in the same setting: then `CSc1ccc(Nc2ncnc3sc(-c4cccnc4Cl)cc23)cc1`, with 7.7; and `CSc1ccc(Nc2ncnc3sc(-c4c(C)noc4C)cc23)cc1`, with 7.6. Still for that read-out and setting: next, `Cc1ccc(Nc2ncnc3sc(-c4cccnc4C)cc23)cc1C`: 5.9; `CS(=O)(=O)c1ccc(Nc2ncnc3sc(-c4cn[nH]c4)cc23)cc1`: 7.8. Consider `CS(=O)(=O)c1ccc(Nc2ncnc3cc(-c4cccnc4Cl)sc23)cc1`, for which the Papp A→B in data set [1] stood at 1.33 ×10⁻⁶ cm/s. This compound registered a pIC50 in data set [2] of 7.9. Take `CS(=O)(=O)c1ccc(Nc2ncnc3sc(-c4cccnc4Cl)cc23)cc1`: the Papp A→B in data set [1] came out at 4.73 ×10⁻⁶ cm/s. The half-inhibitory concentration (IC50) in data set [3] is > 10 µM. Take `CS(=O)(=O)c1ccc(Nc2ncnc3sc(-c4ccnc(Cl)c4)cc23)cc1`: the negative logarithm of the IC50 (pIC50) in data set [2] was determined as 7.2. On to `CS(=O)(=O)c1ccc(Nc2ncnc3sc(-c4ccncc4)cc23)cc1`, for which, in data set [2], the negative-log IC50 (pIC50) is listed as 7.7.

The values are drawn from ChEMBL document CHEMBL5356940, “The rational design of ARUK2007145, a dual inhibitor of the α and γ isoforms of the lipid kinase phosphatidylinositol 5-phosphate 4-kinase (PI5P4K)” (RSC Med Chem, 2023).
